The source of these data is US20230099344A1, “COMPOUNDS AND METHODS FOR THE TARGETED DEGRADATION OF IRAK-4” (Arvinas Operations, Inc., priority 2021, published 2023).

Type in all cases: cell-based
The subject of assay [1] is IL6. In words: IL-1β stimulated IL6 inhibition assay in PBMC. As to conditions: PBMC, human PBMCs, IL-1β stimulation, compound overnight, IL6 by MSD after 24 hrs; for IC50: Homo sapiens, 24 h, read-out: IL1β stim IL6 inhibition IC50; for Emax: read-out: IL1β stim IL6 inhibition Ymax. The procedure:
(§1) IL-1β, LPS, or R848 Stimulated IL6 Inhibition and IL-1β Stimulated IL8 Inhibition Assay
(§2) Human PBMC cells were seeded at 2.0×10^6 cells/mL, treated with compound overnight, and dosed with the EC50 concentration of each stimulant (either IL-1B. LPS, or R848) was determined for each donor. After 24 hrs, media was collected and analyzed by MSD for IL6 and/or IL8 levels.

For assay [2], the target named is T1, IRAK-4 (Homo sapiens, UniProt Q9NWZ3).
T1 sequence (Q9NWZ3 1-460): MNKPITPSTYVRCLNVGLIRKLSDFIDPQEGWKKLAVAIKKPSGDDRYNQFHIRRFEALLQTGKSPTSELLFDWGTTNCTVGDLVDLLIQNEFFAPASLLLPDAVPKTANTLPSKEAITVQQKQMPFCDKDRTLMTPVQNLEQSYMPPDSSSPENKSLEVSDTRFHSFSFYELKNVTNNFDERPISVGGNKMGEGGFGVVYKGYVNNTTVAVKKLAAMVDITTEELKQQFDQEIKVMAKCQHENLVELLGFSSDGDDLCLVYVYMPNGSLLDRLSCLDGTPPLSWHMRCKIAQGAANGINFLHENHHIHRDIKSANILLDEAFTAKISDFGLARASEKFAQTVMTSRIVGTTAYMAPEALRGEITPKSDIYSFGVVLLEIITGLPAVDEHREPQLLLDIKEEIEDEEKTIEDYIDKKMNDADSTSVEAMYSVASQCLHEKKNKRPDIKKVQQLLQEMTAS
In words: IRAK-4 ELISA, OCI-Ly10 degradation. As to conditions: treated overnight; for Dmax: OCI-Ly10, OCI-Ly10 cells; for DC50: OCI-Ly10 cells. Also on record: endogenous in cells. Put shortly:
(§3)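 ELISA quantification of cellular IRAK-4 after compound treatment overnight; PBMC were plated at 2×10^6/ml, OCI-Ly10 at 1×10^6/ml.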
For orientation: An ELISA detects its analyte on a solid surface through an enzyme-linked reagent.

The target in assay [3] is T1, IRAK-4. In words: IRAK-4 ELISA, PBMC degradation. On the set-up: endogenous in cells; host or cells: PBMC. As to conditions: treated overnight. Put shortly:
as §3

In assay [4] the test system is IL8. In words: IL-1β stimulated IL8 inhibition assay in PBMC. As to conditions: human PBMCs, IL-1β stimulation, compound overnight, IL8 by MSD after 24 hrs; for IC50: read-out: IL1β stim IL8 inhibition IC50; for Emax: read-out: IL1β stim IL8 inhibition Ymax. As for the experimental part:
as §1, §2

As usually defined, the IC50 is the concentration needed to halve the response being measured. Broadly, the Dmax is the largest share of the target that was removed. Read a low Dmax as shallow degradation. As usually defined, the DC50 is the midpoint of the concentration-degradation curve. Low readings indicate degradation at low concentration, high ones degradation only at high concentration. Take `COc1cc2nn(C3CCN(CC4CN(c5ccc6c(c5)C(=O)N(C5CCC(=O)NC5=O)C6=O)C4)CC3)cc2cc1NC(=O)c1cnn2cccnc12` (stereo not shown) [Example 202]: in assay [1], the IC50 lay in the range of 10 to 50 nM and the Emax was in the range of 80 to 90%. In assay [2], this molecule gave a Dmax of at least 90% and a DC50 of under 10 nM. For the same molecule, in assay [3], the DC50 is under 1 nM, the Dmax was at least 90% and the “PBMC DC90” value is on record as “A (A represents a DC90 value <10.0 nM)”. Further, in assay [4], the IC50 is at least 100 nM.

Turning to `O=C1CCC(N2Cc3cc(CCN4CCC(n5cc6cc(NC(=O)c7cnn8cccnc78)c(OCC7CC7)cc6n5)CC4)ccc3C2=O)C(=O)N1` (stereo not shown) [Example 126], in assay [1], the IC50 is under 10 nM and the Emax is at least 90%. In assay [2], this molecule gave a Dmax of at least 90% and a DC50 of under 10 nM. Further, in assay [3], the DC50 was in the range of 1 to 5 nM; the Dmax is under 70%; the “PBMC DC90” value was “B (B represents a DC90 value ≥10.0 nM and <25.0 nM)”. In assay [4], the IC50 was under 10 nM and the Emax is under 70%.

Turning to `O=C1CCC(N2C(=O)c3ccc(N4CCC(CN5CCC(N6Cc7cc(NC(=O)c8cnn9cccnc89)c(OCC8CC8)cc7C6=O)CC5)CC4)cc3C2=O)C(=O)N1` (stereo not shown) [Example 30], in assay [1], the IC50 was 10 to 50 nM and the Emax was at least 90%. In assay [2], the Dmax was at least 90% and the DC50 was under 10 nM. In assay [3], the DC50 was under 1 nM, the Dmax was in the range of 80 to 90% and the “PBMC DC90” value was “A (A represents a DC90 value <10.0 nM)”. Further, the IC50 in assay [4] was at least 100 nM.

As to `O=C1CCC(NC(=O)c2ccc(N3CC(CN4CCC(n5cc6cc(NC(=O)c7cnn8cccnc78)c(OCC7CC7)cc6n5)CC4)C3)cc2F)C(=O)N1` (stereo not shown) [Example 287], in assay [1], the IC50 is 50 to 100 nM and the Emax was at least 90%. In assay [2], this molecule displayed a Dmax of at least 90% and a DC50 of under 10 nM. In assay [3], the DC50 was in the range of 1 to 5 nM; the greatest degradation seen (Dmax) was at least 90%; the “PBMC DC90” value is “B (B represents a DC90 value ≥10.0 nM and <25.0 nM)”. Further, in assay [4], the IC50 is at least 100 nM and the Emax is under 70%.

Regarding `O=C1CCC(N2C(=O)c3ccc(N4CC(N5CCC(N6Cc7cc(NC(=O)c8cnn9cccnc89)c(N8CCC(N9CCC9)CC8)cc7C6=O)CC5)C4)cc3C2=O)C(=O)N1` (stereo not shown) [Example 99], in assay [1], the IC50 is 10 to 50 nM and the Emax is at least 90%. For the same molecule, in assay [2], the greatest degradation seen (Dmax) is at least 90% and the DC50 was under 10 nM. In assay [3], the DC50 was in the range of 5 to 10 nM, the Dmax lay within 80 to 90% and the “PBMC DC90” value is given as “D (D represents a DC90 value ≥50 nM)”. Moreover, in assay [4], the IC50 lay in the range of 50 to 100 nM and the Emax lay within 80 to 90%.

Take `CC(C)Oc1cc2c(cc1NC(=O)c1cnn3cccnc13)CN([C@H]1CC[C@@H](N3CC4(CN(c5ccc6c(c5)C(=O)N(C5CCC(=O)NC5=O)C6=O)C4)C3)CC1)C2=O` (stereo partly shown) [Example 69]: in assay [1], the IC50 is 10 to 50 nM and the Emax was at least 90%. In assay [2], the Dmax was at least 90% and the DC50 was under 10 nM. For the same molecule, in assay [3], the DC50 was in the range of 1 to 5 nM, the Dmax is at least 90% and the “PBMC DC90” value is “A (A represents a DC90 value <10.0 nM)”. Moreover, in assay [4], the IC50 fell in the range of 10 to 50 nM and the Emax lay within 80 to 90%.

Regarding `O=C1CCC(N2C(=O)c3ccc(N4CCC(CN5CCC([C@H](F)Cn6cc7cc(NC(=O)c8cnn9cccnc89)c(OCC8CC8)cc7n6)CC5)CC4)cc3C2=O)C(=O)N1` (stereo partly shown) [Example 182], in assay [1], the IC50 is under 10 nM and the Emax is 80 to 90%. In assay [2], this molecule had a Dmax of at least 90% and a DC50 of under 10 nM. In assay [3], the 50% degradation concentration (DC50) was under 1 nM, the Dmax was at least 90% and the “PBMC DC90” value was “A (A represents a DC90 value <10.0 nM)”. For the same molecule, in assay [4], the IC50 is under 10 nM and the Emax is under 70%.

With `COc1cc2nn([C@H]3CC[C@H](N(C)C4CN(c5ccc6c(c5)CN(C5CCC(=O)NC5=O)C6=O)C4)CC3)cc2cc1NC(=O)c1cnn2cccnc12` (stereo partly shown) [Example 337], in assay [1], the IC50 was under 10 nM and the Emax is at least 90%. Also, in assay [2], the Dmax was at least 90% and the DC50 is under 10 nM. Moreover, in assay [3], the DC50 was 1 to 5 nM, the Dmax is at least 90% and the “PBMC DC90” value is “A (A represents a DC90 value <10.0 nM)”. In assay [4], the IC50 is under 10 nM and the Emax is under 70%.

Take `CC(C)Oc1cc2c(cc1NC(=O)c1cnn3cccnc13)CN(C1CCN(C3CCN(c4ccc5c(c4)CN(C4CCC(=O)NC4=O)C5=O)CC3)CC1)C2=O` (stereo not shown) [Example 282]: in assay [1], the IC50 was under 10 nM and the Emax was at least 90%. In addition, in assay [2], the Dmax was at least 90% and the DC50 is under 10 nM. Also, in assay [3], the DC50 was under 1 nM, the maximal degradation (Dmax) is at least 90% and the “PBMC DC90” value was “A (A represents a DC90 value <10.0 nM)”. For the same molecule, in assay [4], the IC50 lay within 10 to 50 nM and the Emax was under 70%.

On to `COc1cc2nn(C3CCN(CC4CCN(c5ccc6c(c5)CN(C5CCC(=O)NC5=O)C6=O)CC4)CC3)cc2cc1NC(=O)c1cnn2cccnc12` (stereo not shown) [Example 141], for which, in assay [1], the IC50 is under 10 nM and the Emax was at least 90%. In assay [2], this molecule gave a Dmax of 80 to 90% and a DC50 of under 10 nM. In addition, in assay [3], the 50% degradation concentration (DC50) was 1 to 5 nM; the Dmax lay in the range of 80 to 90%; the “PBMC DC90” value is “B (B represents a DC90 value ≥10.0 nM and <25.0 nM)”. In assay [4], the IC50 was in the range of 10 to 50 nM and the Emax fell in the range of 80 to 90%.

On to `COc1cc2nn(C3CCN(CC4(F)CN(c5ccc6c(c5)CN(C5CCC(=O)NC5=O)C6=O)C4)CC3)cc2cc1NC(=O)c1cnn2cccnc12` (stereo not shown) [Example 274], for which, in assay [1], the IC50 fell in the range of 10 to 50 nM and the Emax was at least 90%. In assay [2], this molecule gave a Dmax of under 70% and a DC50 of under 10 nM. Besides, in assay [3], the half-maximal degradation concentration (DC50) is under 1 nM, the Dmax lay in the range of 80 to 90% and the “PBMC DC90” value was “A (A represents a DC90 value <10.0 nM)”. For the same molecule, in assay [4], the IC50 was in the range of 50 to 100 nM and the Emax is 70 to 80%.

As to `O=C1CCC(N2C(=O)c3ccc(N4CC(CN5CCC([C@H](F)Cn6cc7cc(NC(=O)c8cnn9cccnc89)c(OCC8CC8)cc7n6)CC5)C4)cc3C2=O)C(=O)N1` (stereo partly shown) [Example 173], in assay [1], the half-maximal inhibitory concentration (IC50) was in the range of 10 to 50 nM and the Emax was at least 90%. In assay [2], this molecule returned a Dmax of at least 90% and a DC50 of under 10 nM. Further, in assay [3], the DC50 was under 1 nM, the Dmax is at least 90% and the “PBMC DC90” value is listed as “A (A represents a DC90 value <10.0 nM)”. In addition, in assay [4], the IC50 was in the range of 10 to 50 nM and the Emax was under 70%.

`O=C1CCC(N2Cc3cc(N4CC(CN5CCC(N6Cc7cc(NC(=O)c8cnn9cccnc89)c(OCC8CC8)cc7C6=O)CC5)C4)ccc3C2=O)C(=O)N1` (stereo not shown) [Example 29]: in assay [1], the IC50 fell in the range of 10 to 50 nM and the Emax is under 70%. Also, in assay [2], the Dmax was in the range of 70 to 80% and the DC50 is under 10 nM. For the same molecule, in assay [3], the DC50 fell in the range of 1 to 5 nM, the greatest degradation seen (Dmax) lay in the range of 80 to 90% and the “PBMC DC90” value is “A (A represents a DC90 value <10.0 nM)”. For the same molecule, in assay [4], the IC50 lay within 50 to 100 nM and the Emax was in the range of 70 to 80%.

Take `COc1cc2nn(C3CCN(CCc4ccc5c(c4)CN(C4CCC(=O)NC4=O)C5=O)CC3)cc2cc1NC(=O)c1cnn2cccnc12` (stereo not shown) [Example 143]: in assay [1], the IC50 is under 10 nM and the Emax was at least 90%. In assay [2], this molecule returned a Dmax of at least 90% and a DC50 of under 10 nM. For the same molecule, in assay [3], the DC50 lay in the range of 1 to 5 nM; the Dmax was at least 90%; the “PBMC DC90” value was “C (C represents a DC90 value ≥25.0 nM and <50 nM)”. For the same molecule, in assay [4], the IC50 was under 10 nM and the Emax is 70 to 80%.

As for `CC(C)Oc1cc2c(cc1NC(=O)c1cnn3cccnc13)CN(C1CCN(C3CCN(c4ccc5c(c4)C(=O)N(C4CCC(=O)NC4=O)C5=O)CC3)CC1)C2=O` (stereo not shown) [Example 64], in assay [1], the half-maximal inhibitory concentration (IC50) was 10 to 50 nM and the Emax was in the range of 80 to 90%. In assay [2], this molecule came in with a Dmax of at least 90% and a DC50 of under 10 nM. In addition, in assay [3], the half-maximal degradation concentration (DC50) was under 1 nM, the Dmax is at least 90% and the “PBMC DC90” value was “A (A represents a DC90 value <10.0 nM)”. Moreover, in assay [4], the IC50 was in the range of 50 to 100 nM and the Emax is under 70%.
